Results as given in article PMC7785802, “Therapeutic Efficacy of a Trichinella Spiralis Paramyosin-Derived Peptide Modified With a Membrane-Targeting Signal in Mice With Antigen-Induced Arthritis” (Frontiers in Microbiology, 2020).

Tested on: mouse ATDC5 cells
Assay: Peptide binding to cell surface, confocal laser scanning microscopy
Type: cell-based
Conditions: biotin-labeled peptide 260 nmol, 540 nmol, 1.08 mmol; streptavidin-FITC, DAPI
Text: The mouse ATDC5 chondrogenic cell line is an important chondrocyte model that has been widely used in the study of chondrocyte proliferation and differentiation. This cell line was used to evaluate the membrane-binding ability of the modified peptide, as articular cartilage (which contains chondrocytes) is one of the main cellular components in the joint cavity. The cells were purchased from Guangzhou Jennio Biotech Co., Ltd. (Guangzhou, China) and maintained in Dulbecco's Modified Eagle Medium (DMEM, ThermoFisher, America) supplemented with 10% fetal bovine serum (FBS, Gibco, Australia) at 37°C in a humidified atmosphere with 5% CO2. The 5th−10th passages of the cells were used in the study.
To assess the binding ability of the modified peptide to the cell membrane, the three peptides were labeled with biotin at the C-terminus. […] The cells were washed and resuspended in PBS and then the binding of the peptides to the cell membrane was assessed by flow cytometry (BD Biosciences, California, USA). […] The binding of the peptides to the cell membrane was then assessed by staining with streptavidin-FITC (eBioscience). […] They were then analyzed by confocal laser scanning microscopy (Leica, Germany).
Figure 3 Modified peptide non-specifically bound to the cell surface. (A) Binding of peptides to the surface of mouse ATDC5 cells measured by flow cytometry. […]

Myr-GSSKSPSKKKKKKPG-ACP-VSMGKSLSSKVYVM [modified peptide, Ts-pmy-derived peptide modified with a membrane-targeting signal]
binding to surface of ATDC5 cells (confocal microscopy): could bind to the surface of mouse ATDC5 cells
